Results taken from patent publication US9889081B2, “Aldehyde dehydrogenase inhibitors as novel depigmenting agents” (The Regents of the University of California, priority 2008, dated 2018).

Assays:
MNT-1 cells = assay: Drug treatment, pigmentation in MNT-1 cells; assay type: cell-based, human; details: doses equivalent to those required for inhibition of Aldh activity in culture
Source text: For further analyses, we focused on those novel pigmentation genes that impacted tyrosinase expression in all three genetic backgrounds. Among these were two isoforms of aldehyde dehydrogenase, Aldh1 and Aldh9, well characterized enzymes that regulate ethanol detoxification (Edenberg 2007). A number of chemical inhibitors of these enzymes have been identified (DeMaster et al. 1998), and several of these agents are clinically utilized to induce alcohol intolerance during detoxification interventions; presenting an opportunity for pharmacological validation of the contribution of Aldh activity to melanocyte pigmentation.
1×10^4 MNT-1 cells were plated in a 96 well microtiter plate. 24 hours after plating, cells were incubated with either vehicle, hydroquinone Angeli's salt, or cyanamide. 48 hours after drug treatment, cell lysates were prepared and subjected to immunoblotting with a tyrosinase and ERK antibody. Similar protocols were utilized in primary melanocytes. Melanocytes were plated in 96 well microtiter plate in the presence of drug or vehicle. 24 hours after drug treatment, melanocytes were treated with UV. Cell lysates were prepared 24 hours after UV treatment and subjected to immunoblotting. […] Cells were incubated for an additional 7 days, with one media change on day 4, prior to collection of absorbance and viability values. […]

tyrosinase [1] = assay: Drug treatment, tyrosinase immunoblot in MNT-1 cells; assay type: cell-based, human; details: 5 uM, doses equivalent to those required for inhibition of Aldh activity in culture
Description: (§1) FIG. 2A-G. Novel, pharmaceutically-tractable melanogenesis gene networks converge on tyrosinase expression. a, 4 days post transfection with the indicated siRNAs, MNT-1 whole cell lysates were prepared and analyzed by immunoblot for the indicated proteins. A non-targeting siRNA was used as a transfection control (Control). ERK1/2 is shown as a loading control. b, Those siRNAs that inhibited tryosinase accumulation were examined for consequences on Tyrosinase and MITF gene expression by quantitative rt-PCR. c, The indicated siRNAs, targeting novel pigmentation genes identified in the MNT-1 screen, were tested for consequences on tyrosinase protein accumulation in darkly pigmented primary human melanocyte cultures 6 days post transfection as in a. d, The indicated siRNAs, targeting novel pigmentation genes identified in the MNT-1 screen, were tested for consequences on tyrosinase protein accumulation in moderately pigmented primary human melanocyte cultures 6 days post transfection as in a. e, Pharmacological inhibition of Aldh activity impacts tyrosinase protein accumulation. […] Tyrosinase and ERK1/2 levels were assessed by immunoblot. […]
(§2) 1×10^4 MNT-1 cells were plated in a 96 well microtiter plate. […] Cells were incubated for an additional 7 days, with one media change on day 4, prior to collection of absorbance and viability values. […]

tyrosinase [2] = assay: UV-induced tyrosinase expression in primary melanocytes, immunoblot; assay type: cell-based, human; details: cyanamide 100 uM, UV-B 24 hours post treatment
Description: as §1, §2

melanoma cells = details: cited from earlier work
[3] = tested on: primary human melanocytes; details: Hall and Orlow 2005; cited from earlier work
tyrosinase [4] = assay: Bafilomycin rescue of tyrosinase accumulation after siRNA depletion, immunoblot; assay type: cell-based, human; details: MNT-1 cells, 25 nM bafilomycin
Description: FIG. 2A-G. Novel, pharmaceutically-tractable melanogenesis gene networks converge on tyrosinase expression. a, 4 days post transfection with the indicated siRNAs, MNT-1 whole cell lysates were prepared and analyzed by immunoblot for the indicated proteins. A non-targeting siRNA was used as a transfection control (Control). ERK1/2 is shown as a loading control. b, Those siRNAs that inhibited tryosinase accumulation were examined for consequences on Tyrosinase and MITF gene expression by quantitative rt-PCR. c, The indicated siRNAs, targeting novel pigmentation genes identified in the MNT-1 screen, were tested for consequences on tyrosinase protein accumulation in darkly pigmented primary human melanocyte cultures 6 days post transfection as in a. d, The indicated siRNAs, targeting novel pigmentation genes identified in the MNT-1 screen, were tested for consequences on tyrosinase protein accumulation in moderately pigmented primary human melanocyte cultures 6 days post transfection as in a. e, Pharmacological inhibition of Aldh activity impacts tyrosinase protein accumulation. MNT-1 cells (left panel) and primary melanomcyte cultures (right panels) were exposed to 5 uM Aldh inhibitors (cyanamide or Angeli's salt) or the tyrosinase inhibitor hydroxyquinone(Kim and Uyama 2005) for 72 hours as indicated. 24 hours post treatment, cultures were exposed to UV-B at the doses indicated. Tyrosinase and ERK1/2 levels were assessed by immunoblot. […] Subsequently, cells were lysed in Cell Titer Glo and the luminescence and absorbance values were used to calculate inhibition of pigmentation as in FIG. 1a. g, MNT-1 cells transfected with the indicated siRNAs as in a were incubated in the presence and absence of bafilomycin A2 for 24 hours prior to lyses and analyses of tyrosinase protein accumulation. […]
as §2

[5] = tested on: primary human melanocytes; assay: Pigment production in darkly pigmented primary human melanocytes, 7 days with drug; assay type: cell-based; details: seven days
Description: as §1, §2

[6] = 24 hour inhibition of lysosome acidification

| Compound | pigmentation (MNT-1 cells) | tyrosinase protein accumulation (tyrosinase [1]) | UV-induced tyrosinase expression (tyrosinase [2]) | toxicity (melanoma cells) | further results |
| --- | --- | --- | --- | --- | --- |
| [Na+].[Na+].[O-][N+]([O-])=NO [Angeli's salt] | inhibited pigmentation | inhibited | impaired UV-induced tyrosinase expression | non-toxic |  |
| CCN(CC)C(=S)SSC(=S)N(CC)CC [Disulfiram] |  |  |  | toxic to melanoma cells |  |
| NC(=S)Nc1ccccc1 [PTU, phenylthiourea] |  |  |  |  | in vitro pigment inhibition [3]: most potent currently known in vitro pigment inhibitor |
| CO/C1=C\C(C)=C\[C@@H](C)[C@@H](O)[C@@H](C)C/C(C)=C/C=C/[C@H](OC)[C@@H]([C@@H](C)[C@@H](O)[C@H](C)[C@@]2(O)C[C@@H](O)[C@H](C)[C@@H](C(C)C)O2)OC1=O [bafilomycin, bafilomycin A] |  |  |  |  | tyrosinase accumulation upon depletion of Msra (tyrosinase [4]): did not restore tyrosinase accumulation; tyrosinase accumulation upon depletion of Rab4a (tyrosinase [4]; [6]): rescued tyrosinase accumulation; tyrosinase accumulation upon depletion of Zdhhc9 (tyrosinase [4]; [6]): rescued tyrosinase accumulation |
| N#CN [cyanamide] | inhibited pigmentation | inhibited | impaired UV-induced tyrosinase expression | non-toxic | melanogenesis [5]: impair melanogenesis |
